The test system of the experiment is non-replicating M. tuberculosis, luciferase expression. In words: non-replicating M. tuberculosis inhibition, confirmation, luciferase expression (AID 651856).

SMILES strings stand for the structures.

By IC90 is commonly meant the concentration needed for an effect of 90%.

With `O=S(Cc1cn(Cc2ccccc2)nn1)c1nnc(-c2ccc(Cl)cc2)o1` (stereo not drawn), the IC90 was 1 µM.

Regarding `c1ccc(CSc2nnc(-c3ccccc3)o2)cc1`, the IC90 is 16 µM.

As for `O=S(Cc1cn(Cc2ccc(F)cc2)nn1)c1nnc(-c2ccc(Cl)cc2)o1` (stereo not drawn), the IC90 is 4 µM.

For the molecule `Clc1ccc(-c2nnc(SCc3cn(Cc4ccccc4)nn3)o2)cc1`, the IC90 was 4 µM.

As for `O=S(=O)(Cc1cn(Cc2ccccc2)nn1)c1nnc(-c2ccc(Cl)cc2)o1`, the concentration for an effect of 90% (IC90) was 8 µM.

As for `O=S(=O)(Cc1ccccc1)c1nnc(-c2ccccc2)o1`, the concentration for an effect of 90% (IC90) was 4 µM.

Regarding `O=S(Cc1ccccc1)c1nnc(-c2ccccc2)o1` (stereo not drawn), the concentration for an effect of 90% (IC90) was 1 µM.

For the molecule `Fc1ccc(Cn2cc(CSc3nnc(-c4ccc(Cl)cc4)o3)nn2)cc1`, the IC90 is 2 µM.

The values are drawn from PubChem BioAssay AID651856 (Broad Institute, 2012).
